Consider three molecules from patent publication US10935541B2 (priority 2014, dated 2021).

The test system of assay [1] is myotubes from muscle-only cultures. Type of assay: cell-based, rat. The protocol: Muscle-only control cultures were established in parallel to all co-cultures examined. These cultures were subjected to identical culture parameters minus the plating of ventral horn cells after 7 days in vitro.
(§1) Myotube contraction was recorded and characterized via measurement of cantilever deflection using an automated system. In this system, cantilevers supporting co-cultured myotubes and motoneurons were inserted into a transparent culture dish fitted into a modified upright Olympus BX51WI electrophysiology microscope. The culture dish was filled with NBActiv4 medium (+10 mM HEPES) to maintain the cells during the analysis. A heated culture dish system (Delta T, Bioptechs, Butler, Pa.) was incorporated into the stage to maintain the culture at 37° C. throughout the analysis.
(§2) Broad field electrical stimulation was first used to verify the contractile ability of the cultured myotubes. Cultures were subjected to a 3 V, 40 ms pulse at a frequency of 1 Hz, and the cantilevers were scanned for 5 seconds each to identify those with active myotubes. Across all experimental conditions, a successful contractile response was taken as any peak equal to or larger than 0.1 V.
(§3) The electrical stimulus was then switched off and the active cantilevers scanned again in order to observe the rate of spontaneous contraction. This condition was followed by bath application of 200 μM glutamate to stimulate motoneuron firing, and the cantilevers were again scanned for evidence of contractile activity. A second application of glutamate was made following addition of 12.5 μM D-tubocurarine (Sigma-Aldrich) to block neuromuscular transmission. The cantilevers were again scanned for contractile activity following this treatment. Finally, cantilevers were subjected to the same broad-field electrical stimulation as was used initially and scanned for contractile activity to verify that the treatments had not destroyed the contractile capability of the myotube or caused the cells to detach.
(§4) Conversion of photo-detector readings to cantilever deflection and myotube force were performed using a modified Stoney's equation (Wilson et al., 2010). Briefly, the photo-detector measured the changes in cantilever bending-induced laser deflection (reported in Volts) from which the deflection of the cantilever tip was calculated. Equations (1) and (2) are restated equations (see, e.g., Wilson et al., 2010) for cantilever tip deflection (δ) and stress produced by the myotube, assuming a uniform thick film the full width of the cantilever (σc). The system parameters used in these equations were the system-specific coefficient relating voltage to laser position on the photo-detector (Cdetector), the angle of the laser and detector relative to the plane of the cantilever (A), the elastic modulus of silicon (ESi), the thicknesses of the cantilever (tSi) and myotube (tf), poison's ratio of silicon (vSi), cantilever length (L), path length of laser from cantilever tip to detector (P), and the width of the cantilever (wsi).
Differences in force per contraction and in contraction frequency were measured for the three conditions: (i) Spontaneous activity, (ii) 200 μM glutamate, and (iii) 12.5 μM D-tubocurarine following glutamate. The differences were evaluated statistically using one-way repeated measures ANOVA (α=0.05) both for the muscle-only controls and for the motoneuron-myotube co-cultures. […]

The test system of assay [2] is co-cultures of primary rat muscle cells and motoneurons. Type of assay: cell-based. The conditions noted are these: for average contraction frequency: co-culture 13 days in vitro, n=10, spontaneous 1.4 Hz; for contractile force (average peak force): mean ± SEM. As to the method: as §1
The automated system consisted of a Helium Neon laser beam that was automatically scanned across the tips of each cantilever at a 30° angle relative to the plane of the cantilever. A quadrant photo-detector module was also moved to detect the reflected beam. Four stepper motor-driven linear actuators attached to XY translational stages controlled the positions of the laser and photo-detector, with each unit mounted to an XY stage and requiring an actuator for the X and Y translation directions. A temperature-controlled stage was incorporated into the unit to maintain the cells at physiological temperature. Stainless steel electrodes were mounted inside the stage dish at a separation distance of 15 mm. To allow the system to produce field stimulation of myotubes when appropriate, the electrodes were connected to a pulse generator (A-M systems, Sequim, Wash.), which was capable of producing field stimulation pulses of varying intensity, frequency, and waveform.
as §2, §3, §4
Differences in force per contraction and in contraction frequency were measured for the three conditions: (i) Spontaneous activity, (ii) 200 μM glutamate, and (iii) 12.5 μM D-tubocurarine following glutamate. […]

Another assay concerns ventral horn motoneurons. The assay can be described thus: Whole-cell patch-clamp recording of cultured motoneurons, response to glutamate. Type of assay: cell-based, rat. The source says:
After 11-13 days in vitro, electrophysiological properties of ventral horn motoneurons were investigated using whole-cell patch-clamp recording techniques. Glass coverslips with cultured ventral horn cells were transferred to a recording chamber located on the stage of a Zeiss Axioscope 2FS Plus upright microscope. Motoneurons were identified visually under an infrared differential interference contrast (DIC) video-microscope. The largest multipolar cells (15-20 μm diameters) with bright somas were identified as motoneurons. Borosilicate glass patch pipettes (BF 150-86-10; Sutter Instrument Company) with a resistance of 6-10 MΩ were made using a Sutter P97 pipette puller (Sutter Instrument Company). Current-clamp and voltage-clamp recordings were made using a Multiclamp 700 A amplifier (Axon instruments). The pipette (intracellular) solution contained 1 mM EGTA, 140 mM K-gluconate, 2 mM MgCl2, 2 mM Na2ATP and 10 mM HEPES (pH 7.2). NBActiv4 medium plus 10 mM HEPES (pH 7.2) was used as the extracellular solution.
After the formation of a giga-ohm seal and membrane puncture, the cell capacitance was compensated. Signals were filtered at 3 kHz and sampled at 20 kHz using a Digidata 1322A interface (Axon Instruments). Data recording and analysis were performed with pClamp8 software (Axon Instruments). Membrane potentials were corrected by subtraction of a 15 mV tip potential, which was calculated using Axon's pClamp8 program. Depolarization-evoked inward and outward currents were examined in voltage-clamp mode. Depolarization-evoked action potentials were examined in current-clamp mode and induced using 1 second depolarizing current injections from a −70 mV holding potential. Action potentials elicited in response to 200 μM glutamate (an excitatory neurotransmitter) (Sigma-Aldrich) injection into the extracellular solution were likewise measured in current-clamp mode from a −70 mV holding potential.
Patch-clamp recordings verified the ability of the co-culture protocol to promote the maturation of electrically-active motoneurons after 11-13 days in culture. […]

The next assay relates to neuromuscular junction. Type of assay: cell-based.

Entries after “also recorded” stand apart in the source; their conditions may differ. Like-named read-outs stand apart in the source and are kept apart here.

Turning to `COc1cc2c3cc1Oc1cc(ccc1O)C[C@@H]1c4c(cc(OC)c(O)c4Oc4ccc(cc4)C[C@@H]3N(C)CC2)CC[N+]1(C)C` [D-tubocurarine], in assay [1] (12.5 μM D-tubocurarine, all control cases), the “inhibitory effect on myotube contraction” value is on record as “no inhibitory effect on myotube contraction”. Besides, in assay [1] (12.5 μM D-tubocurarine, muscle-only controls, p=0.04), the “contraction frequency compared with frequency in response to glutamate” value was “significant increase in contraction frequency”. In assay [2] (12.5 μM D-tubocurarine with glutamate), this molecule had an average contraction frequency of 1.4 Hz. Besides, the “contractile force compared with force in response to glutamate” value in assay [2] (12.5 μM D-tubocurarine, co-culture) is listed as “not significantly different”. Also, the “contractile force (average peak force)” value in assay [2] (after addition of 12.5 μM D-tubocurarine, co-culture) is on record as 45.1 nN. The “effect on glutamate-increased contraction frequency” value in assay [2] (all cases of glutamate increasing contraction frequency by at least 2 Hz) was “returned the contraction frequency to spontaneous levels”.

As for `N[C@@H](CCC(=O)O)C(=O)O` [glutamate], the “duration of motoneuron activity in response to glutamate” value in the assay on ventral horn motoneurons (200 μM glutamate bath application) is reported as “roughly 2.5 minutes”. For the same molecule, the “response of motoneurons to bath application (membrane depolarization, action potentials)” value with ventral horn motoneurons (200 μM glutamate, gap-free current-clamp, -70 mV holding potential, n=17) was “depolarization of the membrane and elicited action potentials in all motoneurons examined”. For the same molecule, the “response of patched motoneurons to a second application” value with ventral horn motoneurons (second application of glutamate, n=3) is listed as “again depolarized the motoneuron membrane in all cells examined”. The “largest increase in contraction frequency in response to glutamate” value in assay [1] (200 μM glutamate, muscle-only controls) is listed as 0.85 Hz. In addition, the “effect on contraction frequency” value in assay [1] (200 μM glutamate, muscle-only cultures, n=10) is reported as “did not significantly alter contraction frequency”. Also, the “effect on force generated by contracting myotubes” value in assay [1] (glutamate, muscle-only controls, n=7, p=0.24) was “no effect”; in assay [2] (glutamate, co-culture, n=10, p=0.60), “no significant effect”. Besides, in assay [2] (200 μM glutamate), the average contraction frequency is recorded as 4.9 Hz. For the same molecule, the “contractile force (average peak force)” value in assay [2] (glutamate-evoked contractions, 200 μM, co-culture, spontaneous 106.0 nN) stood at 67.4 nN.

Regarding α-Bungarotoxin, in the assay on neuromuscular junction, the “effect on myotube contractions, stimulation from first chamber (myotube side)” value was “did not inhibit contraction; also recorded: contractions are still possible”; the “effect on myotube contractions, stimulation from second chamber (motoneuron side)” value was “less and less responsive; also recorded: decreased contraction of the myotubes”.
